In publication PMC10343472, “Cyclopentenylcytosine (CPE-C): In Vitro and In Vivo Evaluation as an Antiviral against Adenoviral Ocular Infections” (Molecules, 2023):
Read-outs that look alike come from different tables or passages of the source.

Legend:
HAdV2 = experiment: plaque reduction assay in A549 cells, HAdV2; type: cell-based; settings: Human adenovirus sp.
Experimental: (§1) The in vitro antiviral testing was done using a standard plaque reduction assay with A549 human lung carcinoma cells as previously described. The EC50s were determined using a Fitted Line Plot Regression analysis with Minitab Version 21 software. The EC50 is the effective concentration that inhibits plaque formation by 50%. The HAdV types tested represent the most common adenovirus serotypes that cause ocular infections (HAdV8, HAdV19/64, HAdV37 (EKC); HAdV3, HAdV4, HAdV7a (follicular conjunctivitis)) and serotypes that cause conjunctivitis and can replicate in the rabbit ocular model (HAdV1, HAdV2, HAdV5).
(§2) For the in vitro antiviral testing, clinical adenovirus isolates of types HAdV1, HAdV2, HAdV3, HAdV4, HAdV5, HAdV7a, HAdV8, and HAdV19/64 were anonymously collected from patients presenting with typical adenoviral conjunctivitis at the Charles T. Campbell Ophthalmic Microbiology Laboratory at the UPMC Eye Center, University of Pittsburgh, Pittsburgh, PA, USA. The isolates were retrieved from a frozen −80 °C retrospective clinical collection that was de-identified and stored for diagnostic test validations. The types of isolates were determined using serum neutralization. Recently, HAdV19 has been reclassified as HAdV64 [41]; however, for the purpose of this study, it was designated as HAdV19/64. No clinical isolates of HAdV37 were identified, therefore the ATCC (American Type Culture Collection, Manassas, VA, USA) reference strain of HAdV37 was used. The clinical isolates along with the ATCC HAdV37 reference strain were grown in A549 cell (CCL-185, ATCC) monolayers and stocks were prepared, aliquoted, and frozen at –80 °C. The titers of the stock viruses were determined as described in Section 4.7. The same clinical isolate of HAdV5 used for the in vitro antiviral testing was also used for the in vivo antiviral evaluation in the Ad5/NZW rabbit ocular replication model.
(§3) A549 human lung carcinoma cells were grown and maintained in Eagle’s MEM supplemented with 10% fetal bovine serum (Sigma Cell Culture Reagents, St. Louis, MO, USA). The A549 cell line was used to prepare the adenovirus stocks and for the determination of viral titers in the Ad5/NZW rabbit ocular replication model and in the in vitro plaque reduction assays.
(§4) Plaque reduction assays were performed 2–4 times using 24-well multiplates containing A549 monolayers. One plate per virus isolate per drug was used. The 24-well multiplates were inoculated with approximately 100 plaque-forming units (PFU) of HAdV per well. After a three-hour adsorption period, the inocula were removed from all wells. […] The plates were dried, and the number of plaques per well was counted using a dissecting microscope. […] The mean and standard deviation EC50 concentrations of 2–4 trials were then determined for each HAdV isolate. […]

HAdV4 = experiment: plaque reduction assay in A549 cells, HAdV4; type: cell-based; settings: Human adenovirus sp.
Experimental: as §1, §2, §3, §4

HAdV5 = experiment: plaque reduction assay in A549 cells, HAdV5; type: cell-based; settings: Human adenovirus sp.
Experimental: as §1, §2, §3, §4

HAdV7a = experiment: plaque reduction assay in A549 cells, HAdV7a; type: cell-based, Human adenovirus
Experimental: as §1, §2, §3
Plaque reduction assays were performed 2–4 times using 24-well multiplates containing A549 monolayers. One plate per virus isolate per drug was used. The 24-well multiplates were inoculated with approximately 100 plaque-forming units (PFU) of HAdV per well. After a three-hour adsorption period, the inocula were removed from all wells. One ml of overlay media with 0.5% methylcellulose containing 100, 10, 1.0, 0.1, 0.01, or 0.001 μg/mL of CPE-C or cidofovir was added to 3 wells each. To the remaining 6 wells, 1 mL of overlay media with 0.5% methylcellulose and without CPE-C or cidofovir was added. The plates were incubated at 37 °C in 5% CO2 until plaque formation was visible. At that time, the cells were fixed and stained with 0.5% gentian violet containing formalin. The plates were dried, and the number of plaques per well was counted using a dissecting microscope. […] The mean and standard deviation EC50 concentrations of 2–4 trials were then determined for each HAdV isolate. […]

HAdV8 = experiment: plaque reduction assay in A549 cells, HAdV8; type: cell-based; settings: Human adenovirus sp.
Experimental: as §1, §2, §3, §4

HAdV19/64 = experiment: plaque reduction assay in A549 cells, HAdV19/64; type: cell-based; settings: Human adenovirus sp.
Experimental: as §1, §2, §3, §4

HAdV37 = experiment: plaque reduction assay in A549 cells, HAdV37; type: cell-based; settings: Human adenovirus sp.
Experimental: as §1, §2, §3, §4

[1] = tested on: nine adenovirus types that commonly infect the eye; experiment: plaque reduction assay, whole panel of ocular HAdV types; type: cell-based, Human adenovirus; settings: for range of mean EC50 concentrations across the HAdV serotypes tested: highest vs lowest mean EC50; for EC50: unidentified adenovirus
Experimental: as §1, §2, §3
Plaque reduction assays were performed 2–4 times using 24-well multiplates containing A549 monolayers. One plate per virus isolate per drug was used. The 24-well multiplates were inoculated with approximately 100 plaque-forming units (PFU) of HAdV per well. After a three-hour adsorption period, the inocula were removed from all wells. One ml of overlay media with 0.5% methylcellulose containing 100, 10, 1.0, 0.1, 0.01, or 0.001 μg/mL of CPE-C or cidofovir was added to 3 wells each. To the remaining 6 wells, 1 mL of overlay media with 0.5% methylcellulose and without CPE-C or cidofovir was added. The plates were incubated at 37 °C in 5% CO2 until plaque formation was visible. At that time, the cells were fixed and stained with 0.5% gentian violet containing formalin. The plates were dried, and the number of plaques per well was counted using a dissecting microscope. The CPE-C and cidofovir EC50 concentrations (concentrations that inhibits plaque formation by 50%) for each virus isolate were determined using a Fitted Line Plot Regression analysis (Minitab Version 21, State College, PA) of the average number of plaques versus drug concentration. The mean and standard deviation EC50 concentrations of 2–4 trials were then determined for each HAdV isolate. The EC50 concentrations in μg/mL were then converted to μM using the GraphPad online Molarity Calculator (https://www.graphpad.com/quickcalcs/Molarityform.cfm (accessed on 12 June 2023)).

[2] = A549, HAdV2, converted from μg/mL
[3] = HAdV2 clinical isolate, A549 cells, mean ± SD of 2–4 trials
[4] = A549, HAdV4, converted from μg/mL
[5] = HAdV4 clinical isolate, A549 cells, mean ± SD of 2–4 trials
[6] = A549, HAdV5, converted from μg/mL
[7] = HAdV5 clinical isolate, A549 cells, mean ± SD of 2–4 trials
[8] = Human adenovirus sp., A549, HAdV7a clinical isolate, A549 cells, mean ± SD of 2–4 trials
[9] = Human adenovirus sp., A549, HAdV7a, converted from μg/mL
[10] = A549, HAdV8, converted from μg/mL
[11] = HAdV8 clinical isolate, A549 cells, mean ± SD of 2–4 trials
[12] = A549, HAdV19/64, converted from μg/mL
[13] = HAdV19/64 clinical isolate, A549 cells, mean ± SD of 2–4 trials
[14] = A549, HAdV37, converted from μg/mL
[15] = HAdV37 ATCC reference strain, A549 cells, mean ± SD of 2–4 trials

Row | Structure (SMILES) | EC50 (HAdV2; [2]) [nM] | EC50 (HAdV2; [3]) [µg/mL] | EC50 (HAdV4; [4]) [nM] | EC50 (HAdV4; [5]) [µg/mL] | EC50 (HAdV5; [6]) [nM] | EC50 (HAdV5; [7]) [µg/mL] | EC50 (HAdV7a; [8]) [µg/mL] | EC50 (HAdV7a; [9]) [nM] | EC50 (HAdV8; [10]) [nM] | EC50 (HAdV8; [11]) [µg/mL] | EC50 (HAdV19/64; [12]) [nM] | EC50 (HAdV19/64; [13]) [µg/mL] | EC50 (HAdV37; [14]) [nM] | EC50 (HAdV37; [15]) [µg/mL] | range of mean EC50 concentrations across the HAdV serotypes tested [1] [fold] | also measured
1 | Nc1ccn([C@@H]2C=C(CO)[C@@H](O)[C@H]2O)c(=O)n1 [CPE-C, Cyclopentenylcytosine] | 198 ± 101 | 0.047 ± 0.024 | 134 ± 110 | 0.032 ± 0.026 | 126 ± 138 | 0.03 ± 0.033 | 0.055 ± 0.026 | 194 ± 57 | 246 ± 76 | 0.059 ± 0.018 | 196 ± 118 | 0.047 ± 0.028 | 202 ± 37 | 0.048 ± 0.008 | 2 | EC50 concentrations lower for CPE-C compared to cidofovir ([1]; majority of the HAdV types): approximately 100 fold; EC50s across the panel of HAdV types ([1]; nine adenovirus types that commonly infect the eye): < 0.06 µg/mL; EC50 ([1]; read-out: EC50 concentrations across the panel of HAdV types, panel of HAdV types that commonly infect the eye): < 250 nM; EC50 ([1]; read-out: EC50s across the panel of HAdV types, nine adenovirus types that commonly infect the eye): 0.03 to 0.059 µg/mL
2 | Nc1ccn(C[C@@H](CO)OCP(=O)(O)O)c(=O)n1 [Cidofovir, cidofovir, reference compound] | 18300 ± 1470 | 5.11 ± 0.41 | 16500 ± 3310 | 4.61 ± 0.925 | 17600 ± 1740 | 4.92 ± 0.486 | 5.37 ± 0.137 | 19200 ± 491 | 1560 ± 592 | 0.427 ± 0.173 | 17500 ± 1850 | 4.9 ± 0.517 | 17200 ± 2430 | 4.79 ± 0.678 | 12.6 | EC50 (HAdV7a; HAdV7a, converted from μg/mL): 19200 ± 491 nM; EC50 ([1]; read-out: EC50 concentrations for a majority of the HAdV serotypes, majority of the HAdV serotypes): ~5 µg/mL
